Data: ChEMBL document CHEMBL4732126, “Design, synthesis, and biodistribution studies of new analogues of marine alkaloids: Potent in vitro and in vivo fungicidal agents against Candida spp” (Eur J Med Chem, 2021)
In brackets after ≈: the same amount, converted by molar mass. Activity calls are given as the source filed them. The calls are words filed in the database; no cut-off is given here.

Legend:
[1] = Toxicity in iv dosed mouse measured for 24 hrs; type: organism-based; settings: in vivo
[2] = Toxicity in po dosed mouse measured for 24 hrs; type: organism-based; settings: in vivo
[3] = Toxicity in Swiss mouse assessed as relative heart weight at 1 mg/kg, ip measured after 24 hrs (reference value: 4.75 +/- 0.60 g); type: organism-based; settings: in vivo
Candida albicans [4] = assay: In vivo antifungal activity in Swiss mouse infected with Candida albicans ATCC 10231 assessed as reduction in fungal load in kidney at 10 mg/kg, ip administered at 2, 24 and 48 hrs post-infection and measured per gm of organ at 24 hrs post-last dose (reference value: 2.47); type: functional, organism-based; settings: time 72.0 hrs
Candida albicans [5] = assay: Fungicidal activity against Candida albicans ATCC 10231 assessed as reduction in fungal load at 1 ug/ml incubated for 8 hrs followed by inoculation on SD agar plate for 48 hrs by time-kill assay; type: functional, organism-based; settings: dose 1.0 µg/ml, time 56.0 hrs
[6] = Toxicity in Swiss mouse assessed as relative spleen weight at 1 mg/kg, ip measured after 24 hrs (reference value: 4.02 +/- 0.59 g); type: organism-based; settings: in vivo
[7] = Toxicity in Swiss mouse assessed as relative lung weight at 1 mg/kg, ip measured after 24 hrs (reference value: 6.35 +/- 0.68 g); type: organism-based; settings: in vivo
[8] = Toxicity in Swiss mouse assessed as body weight at 1 mg/kg, ip measured after 24 hrs (reference value: 36.25 +/- 0.31 g); type: organism-based; settings: in vivo
Candida albicans [9] = assay: Fungicidal activity against Candida albicans isolate 2 assessed as fungal killing incubated for 48 hrs followed by plating on SD agar plate; type: functional; settings: read-out: MFC99.9
Candida albicans [10] = assay: In vivo antifungal activity in Swiss mouse infected with Candida albicans ATCC 10231 assessed as reduction in fungal load in liver at 10 mg/kg, ip administered at 2, 24 and 48 hrs post-infection and measured per gm of organ at 24 hrs post-last dose (reference value: 1.80); type: functional; settings: time 72 hrs
Candida albicans [11] = assay: In vivo antifungal activity in Swiss mouse infected with Candida albicans ATCC 10231 assessed as reduction in fungal load in spleen at 1 mg/kg, ip administered at 2, 24 and 48 hrs post-infection and measured per gm of organ at 24 hrs post-last dose (reference value: 2.34); type: functional; settings: time 72.0 hrs
Candida albicans [12] = assay: In vivo antifungal activity in Swiss mouse infected with Candida albicans ATCC 10231 assessed as reduction in fungal load in kidney at 1 mg/kg, ip administered at 2, 24 and 48 hrs post-infection and measured per gm of organ at 24 hrs post-last dose (reference value: 2.47); type: functional; settings: time 72.0 hrs
[13] = Toxicity in Swiss mouse assessed as relative kidney weight at 1 mg/kg, ip measured after 24 hrs (reference value: 14.91 +/- 0.99 g); type: organism-based; settings: in vivo
Candida albicans [14] = assay: Fungicidal activity against Candida albicans isolate 5 assessed as fungal killing incubated for 48 hrs followed by plating on SD agar plate; type: functional; settings: read-out: MFC99.9
Candida albicans [15] = assay: Fungicidal activity against Candida albicans isolate 1 assessed as fungal killing incubated for 48 hrs followed by plating on SD agar plate; type: functional; settings: read-out: MFC99.9
Candida albicans [16] = assay: Antifungal activity against Candida albicans isolate 4 assessed as reduction in fungal growth incubated for 48 hrs by broth microdilution method; type: functional
Candida albicans [17] = assay: Fungicidal activity against Candida albicans isolate 4 assessed as fungal killing incubated for 48 hrs followed by plating on SD agar plate; type: functional; settings: read-out: MFC99.9
Candida albicans [18] = assay: Antifungal activity against Candida albicans isolate 5 assessed as reduction in fungal growth incubated for 48 hrs by broth microdilution method; type: functional
Candida albicans [19] = assay: In vivo antifungal activity in Swiss mouse infected with Candida albicans ATCC 10231 assessed as reduction in fungal load in liver at 1 mg/kg, ip administered at 2, 24 and 48 hrs post-infection and measured per gm of organ at 24 hrs post-last dose (reference value: 1.80); type: functional; settings: time 72.0 hrs
Candida albicans [20] = assay: In vivo antifungal activity in Swiss mouse infected with Candida albicans ATCC 10231 assessed as reduction in fungal load in spleen at 10 mg/kg, ip administered at 2, 24 and 48 hrs post-infection and measured per gm of organ at 24 hrs post-last dose (reference value: 2.34); type: functional, organism-based; settings: time 72.0 hrs
Candida albicans [21] = assay: Antifungal activity against Candida albicans isolate 1 assessed as reduction in fungal growth incubated for 48 hrs by broth microdilution method; type: functional
Candida albicans [22] = assay: Fungicidal activity against Candida albicans isolate 3 assessed as fungal killing incubated for 48 hrs followed by plating on SD agar plate; type: functional; settings: read-out: MFC99.9
[23] = Toxicity in Swiss mouse assessed as relative liver weight at 1 mg/kg, ip measured after 24 hrs (reference value: 49.42 +/- 7.17 g); type: organism-based; settings: in vivo
Candida albicans [24] = assay: Antifungal activity against Candida albicans isolate 3 assessed as reduction in fungal growth incubated for 48 hrs by broth microdilution method; type: functional
Candida albicans [25] = assay: Antifungal activity against Candida albicans isolate 2 assessed as reduction in fungal growth incubated for 48 hrs by broth microdilution method; type: functional

COc1cc2c(cc1OC)[C@@H]1N(C)Cc3c(cc(OC)c4c3OCO4)[C@]1(C)[C@H](O)C2
LD50 at 24 h [1]: 41.6 mg/kg
LD50 at 24 h [2]: 800 mg/kg

C[C@@H]1[C@H](O)[C@@H](C)/C=C/C=C/C=C/C=C/C=C/C=C/C=C/[C@H](O[C@@H]2O[C@H](C)[C@@H](O)[C@H](N)[C@@H]2O)C[C@@H]2O[C@](O)(C[C@@H](O)C[C@@H](O)[C@H](O)CC[C@@H](O)C[C@@H](O)CC(=O)O[C@H]1C)C[C@H](O)[C@H]2C(=O)O [AMPHOTERICIN B]
Activity [3]: 5.94 g
Activity (Candida albicans [4]): Active
Activity (Candida albicans [5]): Active
Activity [6]: 4.14 g
Activity [7]: 6.51 g
Activity [8]: 31.12 g
MFC (Candida albicans [9]): 312 µg/mL (≈ 338 µM)
Activity (Candida albicans [10]): 1.51 log10CFU
Activity (Candida albicans [11]): Active
Activity (Candida albicans [12]): Active
Activity [13]: 15.56 g
MFC (Candida albicans [14]): 78.1 µg/mL (≈ 84.5 µM)
MFC (Candida albicans [15]): 78.1 µg/mL (≈ 84.5 µM)
MIC (Candida albicans [16]): 156 µg/mL (≈ 169 µM)
MFC (Candida albicans [17]): 625 µg/mL (≈ 676 µM)
MIC (Candida albicans [18]): 39 µg/mL (≈ 42.2 µM)
Activity (Candida albicans [19]): Active
Activity (Candida albicans [20]): Active
MIC (Candida albicans [21]): 39 µg/mL (≈ 42.2 µM)
MFC (Candida albicans [22]): 39 µg/mL (≈ 42.2 µM)
Activity [23]: 49.34 g
MIC (Candida albicans [24]): 39 µg/mL (≈ 42.2 µM)
MIC (Candida albicans [25]): 39 µg/mL (≈ 42.2 µM)
